Read-outs that look alike come from different tables or passages of the source.

Data set [1] deals with KB-V1 (MDR1++).
The subject of data set [2] is KB-V1 (MDR1++). The experiment in a line: Cell survival assay (SRB), KB-V1 (MDR1++).
Data set [3] relates to KB-3-1. Put plainly: Cell survival assay (SRB), KB-3-1. The settings on record: read-out: In vitro IC50 (nM) KB-3-1. In kind it is cell-based, human. Put shortly:
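Step 1: add serial compound dilutions to cells in duplicate. Step 2: incubate 3 days. Step 3: fix in 10% TCA for 1 hr at 4 °C, stain with 0.04% SRB for 10 min, wash in 1% acetic acid, solubilise in 10 mM Trizma Base, measure absorbance and derive the 50%-growth-inhibition concentration.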

Data set [4] concerns KB-8-5 (MDR1+).
The test system of data set [5] is KB-8-5 (MDR1+). The experiment in a line: Cell survival assay (SRB), KB-8-5 (MDR1+).
The mark [6] stands for this setting: KB-3-1 cells (paclitaxel-sensitive parent).

As for `CN[C@H](C(=O)N[C@H](C(=O)N(C)[C@H](/C=C(\C)C(=O)O)C(C)C)C(C)(C)C)C(C)(C)c1ccccc1` [Example 134, (E,4S)-4-[((2S)-3,3-dimethyl-2-{[(2S)-3-methyl-2-(methylamino)-3-phenylbutanoyl]amino}butanoyl)(methyl)amino]-2,5-dimethyl-2-hexenoic Acid], the values for the IC50 in data set [1] (human), in data set [3] and in data set [4] (human) were 879 nM, 28 nM and 39 nM, respectively. Besides, in data set [2], the “Ratio KBV1/KB” value was determined as 31.3. Also, in data set [5], the “Ratio KB85/KB” value worked out at 1.4.

For `CCOC(=O)/C(C)=C/[C@H](C(C)C)N(C)C(=O)[C@@H](NC(=O)[C@H](NC)C(C)(C)c1ccc(C)c(C)c1)C(C)(C)C` [Example 13b, N,β,β-3,4-pentamethyl-D-phenylalanyl-N^1-[(1S,2E)4-ethoxy-1-isopropyl-3-methyl4-oxo-2-butenyl]-N^1,3-dimethyl-L-valinamide], the values for the IC50 in data set [1], in data set [3] (setting [6]) and in data set [4] were no less than 3000 nM, 295 nM and 1410 nM, respectively. Besides, the “Ratio KBV1/KB” value in data set [2] was found to be 10.2. Moreover, in data set [5], the “Ratio KB85/KB” value turned out to be 4.8.

For `CN[C@@H](C(=O)N[C@H](C(=O)N(C)[C@H](/C=C(\C)C(=O)O)C(C)C)C(C)(C)C)C(C)(C)c1ccc(OC(C)C)cc1` [Example 69, 0-isopropyl-N,β,β-trimethyl-D-tyrosyl-N^1-[(1S,2E)-3-carboxy-1-isopropylbut-2-enyl]-N^1,3-dimethyl-L-valinamide], the IC50 (commonly the concentration needed to halve the response being measured) is 2340 nM in data set [1], 55 nM in data set [3] (setting [6]) and 151 nM in data set [4]. Also, in data set [2], the “Ratio KBV1/KB” value is listed as 42.6. For the same compound, in data set [5], the “Ratio KB85/KB” value was 2.8.

Values taken from patent US20040121965A1, “Method of treating resistant tumors” (Wyeth Holdings Corporation, priority 2002, published 2004).
